Measurements from publication PMC5591244, “Novel selective, potent naphthyl TRPM8 antagonists identified through a combined ligand- and structure-based virtual screening approach” (Scientific Reports, 2017).
“Also recorded” adds a separate entry of the source.

Assays:
[1] = Preliminary PK/ADMET study; conditions: in vivo proof of concept; Table S3 not available
Protocol: To assess the activity of compound 1 in preclinical models of painful urologic syndromes as OBS we used an isovolumetric rat bladder animal model. A preliminary PK/ADMET study was conducted to assess the behaviour of compound 1 in vivo (Table S3).

wt TRPM8 = molecular target: T1, wt TRPM8 (Homo sapiens, UniProt Q7Z2W7); assay: Calcium mobilization on HEK-293 cells transiently transfected with wt myc-tagged TRPM8; type: cell-based; conditions: icilin at EC80, wt; read-out: pIC50, inhibition of icilin activation, wt TRPM8 (converted)
T1 construct: expressed in transfected cells; host or cells: HEK-293, transient (Lipofectamine 2000)
Text: (§1) Single point mutations were introduced in the hTRPM8-coding sequence, and the mutated TRPM8 was cloned as N-terminal c-myc tagged version into the pcDNA3 expression vector. This was done in that way that the single variations could be easily swapped from the myc-tagged expression construct into the non-tagged TRPM8 wild type expression construct.
The list of the variants is the following: variant 1, t2233g, a2234c (=Y745A); variant 2, a2236g, t2237c (=I746A); variant 3, a2395g, a2396c (=N799A) and variant 4, a2405c (D802A). The cloning project comprised three steps. First of all, a unique XhoI restriction site was inserted by site-directed mutagenesis (SDM) using DNA of the pcDNA3_TRPM8 construct as template. The 0.6 kb DNA fragment between the unique 5′ XhoI (introduced) and 3′ BamHI (already present) restriction sites comprised all positions of the four single point mutations and could be later used for their insertion as well as swapping between myc-tagged and non-tagged TRPM8 versions. […] The obtained data from at least four wells (as replicates) were analyzed with GraphPad PRISM® software (version 5, GraphPad Software Inc.) to calculate the mean and standard error of the mean[58], to create sigmoidal concentration-response curves and to calculate IC50 values.

TRPM8 = molecular target: T2, TRPM8 (Homo sapiens, UniProt Q7Z2W7); assay: Schild regression versus icilin; type: cell-based; conditions: data not shown
T2 construct: expressed in transfected cells
Protocol: Compound 1 was also tested in schild regression experiments[65] and compared with icilin and cooling agent (data not shown) to better characterize its mechanism of action. In these experiments, seven points for dose-response curves with icilin at seven different concentrations were analyzed.

TRPM8 N799A = molecular target: T3, TRPM8 N799A (Homo sapiens, UniProt Q7Z2W7, N799A); assay: Calcium mobilization on transiently transfected TRPM8 N799A mutant; type: cell-based; conditions: Cooling agent 10 at EC80, N799A; read-out: pIC50, inhibition of Cooling agent 10 activation, N799A (converted)
T3 construct: expressed in transfected cells; host or cells: HEK-293, transient (Lipofectamine 2000)
Text: as §1
(§2) The list of the variants is the following: variant 1, t2233g, a2234c (=Y745A); variant 2, a2236g, t2237c (=I746A); variant 3, a2395g, a2396c (=N799A) and variant 4, a2405c (D802A). The cloning project comprised three steps. First of all, a unique XhoI restriction site was inserted by site-directed mutagenesis (SDM) using DNA of the pcDNA3_TRPM8 construct as template. The 0.6 kb DNA fragment between the unique 5′ XhoI (introduced) and 3′ BamHI (already present) restriction sites comprised all positions of the four single point mutations and could be later used for their insertion as well as swapping between myc-tagged and non-tagged TRPM8 versions. In a second step, the c-myc tag sequence was introduced embedded within the TRPM8 coding sequence by PCR primers in two partially overlapping PCRs that were then joined by bridge PCR with the external 5′KpnI and internal 3′EcoRI primers and in the last step the point mutations 1 to 4 were inserted into pcDNA3_c-myc-TRPM8 by exchanging the wild type 5′XhoI-3′BamHI fragment (0.6 kb) with each of the corresponding variation fragment derived from synthetic DNA (provided by GeneArt, ThermoFisher Scientific).The myc-tagged constructs were transiently transfected in HEK-293 cells with Lipofectamine 2000 (Invitrogen) according to the manufacturer’s protocol. The pcDNA vectors containing the wt myc-tagged TRPM8 gene and the empty pcDNA3 (mock) were separately transfected into HEK-293 cells as controls. Cells were transfected and seeded on the same day at 17,500 cells/well in poly-D-lysine-coated 384-well plates (MATRIX #4332-CPL). Twenty-four hours after seeding, the activity of transfected TRPM8 receptors was tested using the calcium mobilization assay as described above. The analysis was performed on the basis of ΔF/F° (normalized MAX-MIN), where ΔF is the MAX between time points 117 and 182 minus the MIN between time points TP114 and TP116, and F° is the basal signal at time point TP0. The obtained data from at least four wells (as replicates) were analyzed with GraphPad PRISM® software (version 5, GraphPad Software Inc.) to calculate the mean and standard error of the mean[58], to create sigmoidal concentration-response curves and to calculate IC50 values.

TRPM8 D802A = molecular target: T4, TRPM8 D802A (Homo sapiens, UniProt Q7Z2W7, D802A); assay: Calcium mobilization on transiently transfected TRPM8 D802A mutant; type: cell-based; conditions: Cooling agent 10 at EC80, D802A; read-out: pIC50, inhibition of Cooling agent 10 activation, D802A (converted)
T4 construct: expressed in transfected cells; host or cells: HEK-293, transient (Lipofectamine 2000)
Text: as §1
as §2, with “Cells were transfected and seeded on the same day at 17,500 cells/well in poly-D-lysine-coated 384-well plates (MATRIX #4332-CPL). Twenty-four hours after seeding, the activity of transfected TRPM8 receptors was tested using the calcium mobilization assay as described above. The analysis was performed on the basis of ΔF/F° (normalized MAX-MIN), where ΔF is the MAX between time points 117 and 182 minus the MIN between time points TP114 and TP116, and F° is the basal signal at time point TP0.” left out

TRPV1 = TRPV1 (Homo sapiens, UniProt Q8NER1); assay: Selectivity calcium mobilization assay, TRPV1; type: cell-based; conditions: agonist 100 nM Capsaicin
Protocol: (§3) For calcium mobilization assays, cells were seeded at 10,000 cells/well in 384-well plates coated with poly-D-lysine (MATRIX black/clear bottom #4332-CPL, Thermo Scientific, Waltham, MA, USA) in complete medium.Twenty-four hours after seeding, the plates were washed with Tyrode’s buffer with a Bio-Tek-ELx405 Microplate Washer (Merck Millipore; Billerica, MA, USA), and then 10 µl/well of a solution containing the fluorescent Ca^2+ indicator Fluo-4 NW dye was added. Cells were incubated for 1 h at room temperature before test compounds were added at 3X the concentration with respect to the final wanted concentration to be tested with a FLIPR TETRA system (Molecular Devices, Sunnyvale, CA, USA). Calcium mobilization was monitored over a period of 5 min. A second injection of 10 µl/well of a reference agonist (icilin or Cooling agent 10) at 4X concentration in assay buffer was performed using the FLIPR TETRA system. Of note, for selectivity assays, the following agonists were used: 10 μM AITC (allyl isothiocyanate) for TRPA1; 100 nM Capsaicin for TRPV1; and 20 nM GSK1016790A for TRPV4.

TRPA1 = TRPA1 (Homo sapiens, UniProt O75762); assay: Selectivity calcium mobilization assay, TRPA1; type: cell-based; conditions: agonist 10 μM AITC
Protocol: as §3

TRPV4 = TRPV4 (Homo sapiens, UniProt Q9HBA0); assay: Selectivity calcium mobilization assay, TRPV4; type: cell-based; conditions: agonist 20 nM GSK1016790A
Protocol: as §3

TRPA1, sequence (O75762 whole entry, species assumed): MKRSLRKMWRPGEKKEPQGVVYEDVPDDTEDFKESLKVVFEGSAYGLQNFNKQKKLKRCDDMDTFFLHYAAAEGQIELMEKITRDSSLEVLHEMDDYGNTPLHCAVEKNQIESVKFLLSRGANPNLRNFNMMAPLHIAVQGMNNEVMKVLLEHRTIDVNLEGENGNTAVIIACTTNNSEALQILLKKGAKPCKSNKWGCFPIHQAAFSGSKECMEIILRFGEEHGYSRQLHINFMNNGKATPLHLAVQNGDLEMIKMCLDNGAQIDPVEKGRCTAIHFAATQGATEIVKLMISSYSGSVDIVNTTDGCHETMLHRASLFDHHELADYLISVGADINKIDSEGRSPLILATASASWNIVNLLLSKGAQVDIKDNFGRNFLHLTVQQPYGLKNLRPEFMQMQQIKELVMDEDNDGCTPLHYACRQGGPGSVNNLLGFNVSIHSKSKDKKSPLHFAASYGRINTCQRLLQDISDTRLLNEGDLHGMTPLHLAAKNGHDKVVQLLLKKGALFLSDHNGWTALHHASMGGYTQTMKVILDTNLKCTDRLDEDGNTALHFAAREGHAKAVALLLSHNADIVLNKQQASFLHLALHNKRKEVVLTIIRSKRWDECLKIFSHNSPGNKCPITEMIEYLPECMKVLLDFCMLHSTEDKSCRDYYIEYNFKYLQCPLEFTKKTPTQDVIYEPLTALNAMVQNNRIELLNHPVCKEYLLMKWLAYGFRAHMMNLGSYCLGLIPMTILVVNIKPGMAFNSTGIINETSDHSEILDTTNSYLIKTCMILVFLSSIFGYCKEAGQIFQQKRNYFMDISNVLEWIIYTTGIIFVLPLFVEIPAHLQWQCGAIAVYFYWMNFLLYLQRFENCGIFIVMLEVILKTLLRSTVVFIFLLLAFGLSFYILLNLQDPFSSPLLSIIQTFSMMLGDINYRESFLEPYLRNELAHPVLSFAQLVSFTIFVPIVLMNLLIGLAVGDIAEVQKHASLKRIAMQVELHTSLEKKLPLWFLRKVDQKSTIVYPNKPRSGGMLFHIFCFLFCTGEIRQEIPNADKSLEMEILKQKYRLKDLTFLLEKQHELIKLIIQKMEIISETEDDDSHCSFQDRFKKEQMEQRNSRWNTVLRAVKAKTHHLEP
TRPV1, sequence (Q8NER1 whole entry, species assumed): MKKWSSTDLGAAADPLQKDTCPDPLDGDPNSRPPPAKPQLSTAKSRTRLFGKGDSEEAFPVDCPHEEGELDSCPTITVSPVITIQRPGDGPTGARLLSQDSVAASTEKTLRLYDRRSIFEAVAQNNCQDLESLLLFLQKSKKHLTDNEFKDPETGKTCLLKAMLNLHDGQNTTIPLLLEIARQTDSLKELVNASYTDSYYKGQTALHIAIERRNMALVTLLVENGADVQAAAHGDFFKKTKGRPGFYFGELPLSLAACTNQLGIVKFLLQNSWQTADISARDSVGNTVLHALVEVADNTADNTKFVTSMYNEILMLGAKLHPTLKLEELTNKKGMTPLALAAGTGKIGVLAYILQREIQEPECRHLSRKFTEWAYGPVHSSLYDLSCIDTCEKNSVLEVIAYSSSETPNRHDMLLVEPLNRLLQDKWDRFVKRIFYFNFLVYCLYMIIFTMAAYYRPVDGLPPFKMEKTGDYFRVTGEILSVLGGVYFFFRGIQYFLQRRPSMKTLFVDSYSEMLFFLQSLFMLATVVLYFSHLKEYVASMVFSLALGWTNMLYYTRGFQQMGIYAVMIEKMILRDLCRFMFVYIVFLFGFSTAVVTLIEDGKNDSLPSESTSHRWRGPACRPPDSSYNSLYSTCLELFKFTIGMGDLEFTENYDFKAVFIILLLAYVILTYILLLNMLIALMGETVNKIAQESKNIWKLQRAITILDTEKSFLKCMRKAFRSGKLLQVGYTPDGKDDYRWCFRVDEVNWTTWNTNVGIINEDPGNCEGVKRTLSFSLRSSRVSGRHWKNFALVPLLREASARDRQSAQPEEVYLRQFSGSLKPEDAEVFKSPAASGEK
T2 sequence (Q7Z2W7 whole entry): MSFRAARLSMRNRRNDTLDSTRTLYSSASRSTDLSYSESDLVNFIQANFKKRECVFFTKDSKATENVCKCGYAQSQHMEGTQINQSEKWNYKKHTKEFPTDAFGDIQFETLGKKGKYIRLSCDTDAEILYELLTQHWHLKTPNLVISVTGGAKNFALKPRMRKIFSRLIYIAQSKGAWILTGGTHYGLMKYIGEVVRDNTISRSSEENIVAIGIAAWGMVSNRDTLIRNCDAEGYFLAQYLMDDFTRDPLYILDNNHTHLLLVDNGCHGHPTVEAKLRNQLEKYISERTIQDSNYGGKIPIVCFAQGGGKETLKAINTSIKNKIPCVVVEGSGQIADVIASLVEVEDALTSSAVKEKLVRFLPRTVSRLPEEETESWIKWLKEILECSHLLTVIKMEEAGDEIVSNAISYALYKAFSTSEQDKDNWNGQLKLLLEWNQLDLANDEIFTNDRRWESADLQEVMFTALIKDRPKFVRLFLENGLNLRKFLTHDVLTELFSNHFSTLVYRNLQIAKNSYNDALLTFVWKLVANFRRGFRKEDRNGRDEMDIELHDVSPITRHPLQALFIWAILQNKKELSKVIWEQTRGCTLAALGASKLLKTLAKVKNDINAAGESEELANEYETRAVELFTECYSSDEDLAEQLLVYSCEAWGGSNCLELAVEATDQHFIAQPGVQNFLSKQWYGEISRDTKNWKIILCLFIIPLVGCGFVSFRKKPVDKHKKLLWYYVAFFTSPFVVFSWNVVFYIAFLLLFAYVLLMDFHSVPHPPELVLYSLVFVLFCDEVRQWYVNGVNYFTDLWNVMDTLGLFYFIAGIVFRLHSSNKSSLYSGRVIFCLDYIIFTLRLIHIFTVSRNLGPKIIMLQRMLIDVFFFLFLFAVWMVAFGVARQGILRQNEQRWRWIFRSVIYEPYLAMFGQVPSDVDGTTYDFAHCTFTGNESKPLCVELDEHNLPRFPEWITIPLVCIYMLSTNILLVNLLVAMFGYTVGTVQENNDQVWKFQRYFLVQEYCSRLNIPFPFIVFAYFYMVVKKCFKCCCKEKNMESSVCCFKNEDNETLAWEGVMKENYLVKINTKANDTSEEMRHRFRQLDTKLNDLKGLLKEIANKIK
T1 sequence (Q7Z2W7 whole entry): as above
T4 sequence (Q7Z2W7 whole entry D802A): as the sequence (Q7Z2W7 whole entry) above, with D802A counted along it
TRPV4, sequence (Q9HBA0 whole entry, species assumed): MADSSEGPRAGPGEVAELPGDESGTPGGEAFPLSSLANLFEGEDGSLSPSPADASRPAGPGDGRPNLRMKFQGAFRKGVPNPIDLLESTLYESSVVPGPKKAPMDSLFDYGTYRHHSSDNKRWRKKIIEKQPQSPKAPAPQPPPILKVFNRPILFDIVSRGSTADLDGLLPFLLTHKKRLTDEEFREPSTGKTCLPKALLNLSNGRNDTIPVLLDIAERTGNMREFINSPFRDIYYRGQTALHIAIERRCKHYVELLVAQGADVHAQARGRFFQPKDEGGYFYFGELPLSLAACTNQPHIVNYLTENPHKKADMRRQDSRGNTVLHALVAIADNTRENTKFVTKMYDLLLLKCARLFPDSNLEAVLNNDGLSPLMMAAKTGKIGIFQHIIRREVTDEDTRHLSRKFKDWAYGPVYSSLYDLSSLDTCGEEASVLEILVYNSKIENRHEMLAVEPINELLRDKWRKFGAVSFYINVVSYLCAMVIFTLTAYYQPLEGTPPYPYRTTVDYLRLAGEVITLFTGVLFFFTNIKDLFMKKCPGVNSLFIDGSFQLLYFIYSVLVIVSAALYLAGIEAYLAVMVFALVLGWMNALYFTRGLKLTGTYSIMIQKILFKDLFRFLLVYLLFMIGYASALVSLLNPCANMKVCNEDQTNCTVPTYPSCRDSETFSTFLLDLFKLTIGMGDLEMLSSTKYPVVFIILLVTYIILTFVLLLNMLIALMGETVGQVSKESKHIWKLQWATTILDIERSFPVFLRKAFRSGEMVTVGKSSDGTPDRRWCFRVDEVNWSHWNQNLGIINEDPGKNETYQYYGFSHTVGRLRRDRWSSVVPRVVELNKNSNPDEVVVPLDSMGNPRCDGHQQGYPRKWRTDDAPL
T3 sequence (Q7Z2W7 whole entry N799A): as the sequence (Q7Z2W7 whole entry) above, with N799A counted along it

PK/ADME properties [1]: adequate
IC50 (wt TRPM8): 0.0631 µM
Binding mechanism by Schild regression (TRPM8): orthosteric binding mechanism
IC50 (TRPM8 N799A): 0.01 µM
IC50 (TRPM8 D802A): 3.16 µM
Activity on TRPV4 (TRPV4): completely inactive
Structure (SMILES): Clc1c(OCCNCc2ccco2)ccc2ccccc12 [Compound 1]
Activity on TRPV1 (TRPV1): completely inactive; also recorded: didn’t have any effect
Activity on TRPA1 (TRPA1): completely inactive; also recorded: didn’t have any effect
